Here are results for 19 compounds from patent publication US11547697B2, “Heterocyclic compounds and uses thereof” (MILLENNIUM PHARMACEUTICALS, INC., priority 2009, dated 2023).

pIC50: −log10 of the molar value. Read-outs that look alike come from different tables or passages of the source. A value given as a limit tells only on which side of the number the result lay.

The target in one assay is p110α/p85α (Homo sapiens (Human), UniProt P42336). Nature of the assay: PI 3-Kinase (human) HTRF assay, p110α/p85α. It counts as biochemical.
Sequence of p110α/p85α (P42336 whole entry): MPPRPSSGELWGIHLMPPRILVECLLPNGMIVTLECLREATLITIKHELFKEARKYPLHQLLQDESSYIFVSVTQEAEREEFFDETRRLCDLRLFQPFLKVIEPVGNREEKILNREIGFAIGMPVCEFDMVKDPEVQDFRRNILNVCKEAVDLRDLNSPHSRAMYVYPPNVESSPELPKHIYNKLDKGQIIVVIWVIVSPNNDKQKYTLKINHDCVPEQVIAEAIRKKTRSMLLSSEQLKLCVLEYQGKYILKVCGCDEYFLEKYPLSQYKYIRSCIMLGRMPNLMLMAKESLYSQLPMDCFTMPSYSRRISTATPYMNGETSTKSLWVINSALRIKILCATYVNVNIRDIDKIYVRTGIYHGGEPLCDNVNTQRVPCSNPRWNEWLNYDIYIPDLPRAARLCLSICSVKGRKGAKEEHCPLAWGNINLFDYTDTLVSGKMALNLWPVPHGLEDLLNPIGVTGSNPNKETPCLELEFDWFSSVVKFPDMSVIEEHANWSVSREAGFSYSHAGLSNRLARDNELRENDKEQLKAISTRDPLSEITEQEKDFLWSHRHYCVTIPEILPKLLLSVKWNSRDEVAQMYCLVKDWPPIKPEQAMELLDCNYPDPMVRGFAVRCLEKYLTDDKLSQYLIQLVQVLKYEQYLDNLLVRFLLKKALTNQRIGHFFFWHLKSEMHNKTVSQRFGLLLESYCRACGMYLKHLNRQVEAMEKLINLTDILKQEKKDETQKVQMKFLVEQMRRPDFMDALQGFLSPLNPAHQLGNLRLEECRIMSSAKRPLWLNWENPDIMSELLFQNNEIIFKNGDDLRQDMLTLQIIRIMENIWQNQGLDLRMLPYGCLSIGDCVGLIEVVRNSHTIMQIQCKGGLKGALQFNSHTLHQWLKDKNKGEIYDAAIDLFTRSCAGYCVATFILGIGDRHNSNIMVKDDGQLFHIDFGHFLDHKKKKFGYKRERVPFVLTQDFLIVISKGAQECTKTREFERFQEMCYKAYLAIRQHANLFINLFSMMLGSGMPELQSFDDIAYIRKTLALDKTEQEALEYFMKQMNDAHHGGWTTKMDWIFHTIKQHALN
Sequence of p110α/p85α (P27986 whole entry partner): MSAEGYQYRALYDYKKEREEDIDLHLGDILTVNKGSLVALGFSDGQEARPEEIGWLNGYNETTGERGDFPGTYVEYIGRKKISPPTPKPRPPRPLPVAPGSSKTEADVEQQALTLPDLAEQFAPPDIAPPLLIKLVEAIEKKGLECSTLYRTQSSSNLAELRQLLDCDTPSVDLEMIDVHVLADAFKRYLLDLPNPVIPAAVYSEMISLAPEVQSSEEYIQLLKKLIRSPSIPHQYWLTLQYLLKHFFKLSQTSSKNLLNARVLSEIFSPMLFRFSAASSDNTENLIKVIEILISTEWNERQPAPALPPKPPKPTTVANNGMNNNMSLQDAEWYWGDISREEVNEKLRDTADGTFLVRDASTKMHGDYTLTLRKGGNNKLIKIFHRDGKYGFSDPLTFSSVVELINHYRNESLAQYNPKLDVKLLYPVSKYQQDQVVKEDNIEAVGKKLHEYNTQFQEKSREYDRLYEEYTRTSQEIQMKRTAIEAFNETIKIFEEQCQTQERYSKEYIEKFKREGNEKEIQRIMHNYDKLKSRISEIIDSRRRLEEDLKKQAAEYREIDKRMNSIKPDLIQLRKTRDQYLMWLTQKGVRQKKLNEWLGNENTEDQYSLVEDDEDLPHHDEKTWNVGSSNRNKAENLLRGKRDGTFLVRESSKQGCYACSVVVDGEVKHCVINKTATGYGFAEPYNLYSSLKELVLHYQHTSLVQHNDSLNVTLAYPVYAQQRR
For assay [1], the system named is tumor cells with a PI3Kα mutation (e.g., MDA-MB-361 and T47D). The assay can be described thus: Proliferation of tumor cells with PI3Kα mutation. It counts as cell-based. Particulars: Homo sapiens.
In the next assay the target is p110δ/p85α (Homo sapiens (Human), UniProt O00329). Nature of the assay: PI 3-Kinase (human) HTRF assay, p110δ/p85α. It counts as biochemical. In general terms: TR-FRET usually uses a lanthanide donor and a delayed reading to cut background.
Sequence of p110δ/p85α (O00329 whole entry): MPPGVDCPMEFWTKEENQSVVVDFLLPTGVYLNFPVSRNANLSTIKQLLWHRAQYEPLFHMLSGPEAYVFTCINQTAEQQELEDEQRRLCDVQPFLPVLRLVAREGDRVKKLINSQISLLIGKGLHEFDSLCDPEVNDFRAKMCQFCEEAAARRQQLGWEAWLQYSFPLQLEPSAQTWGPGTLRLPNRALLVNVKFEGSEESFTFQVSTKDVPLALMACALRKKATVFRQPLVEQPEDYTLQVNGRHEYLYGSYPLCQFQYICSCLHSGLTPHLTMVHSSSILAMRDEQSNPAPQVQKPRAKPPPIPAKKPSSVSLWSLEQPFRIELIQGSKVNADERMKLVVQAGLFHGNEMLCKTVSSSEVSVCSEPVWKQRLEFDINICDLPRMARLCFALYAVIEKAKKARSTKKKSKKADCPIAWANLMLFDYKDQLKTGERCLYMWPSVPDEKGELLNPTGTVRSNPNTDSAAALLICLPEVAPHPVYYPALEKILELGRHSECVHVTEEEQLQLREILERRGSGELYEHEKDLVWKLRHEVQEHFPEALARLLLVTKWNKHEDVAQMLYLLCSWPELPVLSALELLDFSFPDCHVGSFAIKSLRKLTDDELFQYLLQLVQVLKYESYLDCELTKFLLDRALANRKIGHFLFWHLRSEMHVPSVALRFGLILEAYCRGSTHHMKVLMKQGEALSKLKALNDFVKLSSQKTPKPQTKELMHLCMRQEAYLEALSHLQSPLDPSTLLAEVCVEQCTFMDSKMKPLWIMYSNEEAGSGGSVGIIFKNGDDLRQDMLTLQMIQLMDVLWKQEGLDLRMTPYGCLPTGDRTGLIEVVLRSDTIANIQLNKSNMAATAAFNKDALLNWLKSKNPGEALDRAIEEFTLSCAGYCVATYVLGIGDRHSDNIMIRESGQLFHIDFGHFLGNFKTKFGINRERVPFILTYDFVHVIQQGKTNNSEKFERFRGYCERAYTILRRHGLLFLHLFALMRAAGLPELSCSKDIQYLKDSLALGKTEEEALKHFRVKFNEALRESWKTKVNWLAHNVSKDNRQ
Sequence of p110δ/p85α (P27986 whole entry partner): as the sequence (P27986 whole entry partner) above
The target of the next assay is p110γ (Homo sapiens (Human), UniProt P48736). Nature of the assay: PI 3-Kinase (human) HTRF assay, p110γ. It counts as biochemical.
Sequence of p110γ (P48736 whole entry): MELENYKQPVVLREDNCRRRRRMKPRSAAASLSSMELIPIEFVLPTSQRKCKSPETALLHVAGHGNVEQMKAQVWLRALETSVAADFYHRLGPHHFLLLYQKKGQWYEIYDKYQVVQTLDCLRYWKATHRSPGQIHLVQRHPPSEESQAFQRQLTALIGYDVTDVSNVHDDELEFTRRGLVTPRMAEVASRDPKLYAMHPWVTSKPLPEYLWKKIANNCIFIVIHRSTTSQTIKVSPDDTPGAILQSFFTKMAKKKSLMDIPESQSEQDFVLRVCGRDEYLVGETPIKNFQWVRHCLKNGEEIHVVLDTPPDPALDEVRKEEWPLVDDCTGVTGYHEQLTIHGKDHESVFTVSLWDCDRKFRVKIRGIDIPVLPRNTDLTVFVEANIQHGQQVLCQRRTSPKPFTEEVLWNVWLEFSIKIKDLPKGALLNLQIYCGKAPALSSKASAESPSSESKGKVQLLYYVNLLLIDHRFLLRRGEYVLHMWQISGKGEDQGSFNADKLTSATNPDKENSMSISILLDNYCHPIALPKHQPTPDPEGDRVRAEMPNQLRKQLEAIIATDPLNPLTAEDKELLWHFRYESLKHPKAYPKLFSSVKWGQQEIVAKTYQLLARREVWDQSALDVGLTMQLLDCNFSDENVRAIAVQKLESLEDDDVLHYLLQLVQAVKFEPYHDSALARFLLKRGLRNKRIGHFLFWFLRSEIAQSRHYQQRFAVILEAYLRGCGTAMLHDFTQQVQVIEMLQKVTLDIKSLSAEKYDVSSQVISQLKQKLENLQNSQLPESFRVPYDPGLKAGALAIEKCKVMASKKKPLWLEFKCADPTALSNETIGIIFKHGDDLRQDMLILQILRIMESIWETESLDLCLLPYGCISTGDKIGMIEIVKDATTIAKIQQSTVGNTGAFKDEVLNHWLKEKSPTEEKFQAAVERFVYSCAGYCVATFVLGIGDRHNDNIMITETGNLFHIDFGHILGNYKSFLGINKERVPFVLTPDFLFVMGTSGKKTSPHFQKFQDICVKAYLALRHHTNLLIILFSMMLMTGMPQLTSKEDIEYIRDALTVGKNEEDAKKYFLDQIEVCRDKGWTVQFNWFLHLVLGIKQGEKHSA
For the next assay, the target named is p110β/p85α (Homo sapiens (Human), UniProt P42338). The assay can be described thus: PI 3-Kinase (human) HTRF assay, p110β/p85α. It counts as biochemical. The settings on record: read-out: PI3K β IC50.
Sequence of p110β/p85α (P42338 whole entry): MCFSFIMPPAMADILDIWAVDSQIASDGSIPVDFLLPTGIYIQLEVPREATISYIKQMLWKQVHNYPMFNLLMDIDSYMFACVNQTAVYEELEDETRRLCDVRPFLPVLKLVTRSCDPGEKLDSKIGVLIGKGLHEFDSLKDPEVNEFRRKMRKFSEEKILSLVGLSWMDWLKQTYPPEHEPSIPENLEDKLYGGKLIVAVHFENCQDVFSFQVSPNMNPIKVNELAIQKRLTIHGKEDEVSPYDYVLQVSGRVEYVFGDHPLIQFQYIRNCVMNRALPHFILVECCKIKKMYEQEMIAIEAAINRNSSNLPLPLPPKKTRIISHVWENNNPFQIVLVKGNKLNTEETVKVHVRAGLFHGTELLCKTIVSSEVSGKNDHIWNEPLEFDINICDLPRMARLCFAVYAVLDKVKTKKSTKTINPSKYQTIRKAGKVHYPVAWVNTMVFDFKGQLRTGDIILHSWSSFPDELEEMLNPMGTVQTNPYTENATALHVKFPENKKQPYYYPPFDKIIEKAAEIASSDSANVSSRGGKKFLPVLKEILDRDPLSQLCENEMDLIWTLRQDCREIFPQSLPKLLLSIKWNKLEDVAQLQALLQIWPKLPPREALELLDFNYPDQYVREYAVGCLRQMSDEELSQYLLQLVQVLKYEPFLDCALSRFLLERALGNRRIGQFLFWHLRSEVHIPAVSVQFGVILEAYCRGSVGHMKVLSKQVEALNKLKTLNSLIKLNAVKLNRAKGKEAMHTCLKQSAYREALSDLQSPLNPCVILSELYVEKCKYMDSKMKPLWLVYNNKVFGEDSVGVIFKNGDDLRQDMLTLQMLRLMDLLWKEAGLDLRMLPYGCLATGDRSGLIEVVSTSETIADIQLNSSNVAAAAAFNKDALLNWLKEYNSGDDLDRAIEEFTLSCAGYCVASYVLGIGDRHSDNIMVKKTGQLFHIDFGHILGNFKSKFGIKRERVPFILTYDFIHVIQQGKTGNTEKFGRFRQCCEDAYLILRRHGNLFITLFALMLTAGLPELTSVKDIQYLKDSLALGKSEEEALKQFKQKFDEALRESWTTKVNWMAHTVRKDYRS
Sequence of p110β/p85α (P27986 whole entry partner): as the sequence (P27986 whole entry partner) above
[2] abbreviates: T47D cells, read-out: T47D proliferation.
[3] abbreviates: PC3, read-out: PC3 proliferation In Vitro IC50.
The mark [4] stands for this setting: in vitro, read-out: PI3K α IC50.
Where [5] appears, read: T47D cells, read-out: T47D proliferation IC50.
Setting [6] is: in vitro, read-out: PI3K γ IC50.
[7] abbreviates: in vitro, read-out: PI3K δ IC50.

Method for p110δ/p85α: An exemplary system is PI 3-Kinase (human) HTRF™ Assay from Upstate. […] Briefly, the assay is a time resolved FRET assay that indirectly measures PIP3 product formed by the activity of a PI3-K. The kinase reaction is performed in a microtitre plate (e.g., a 384 well microtitre plate). The total reaction volume is approximately 20 ul per well. In the first step, each well receives 2 ul of test compound in 20% dimethylsulphoxide resulting in a 2% DMSO final concentration. Next, approximately 14.5 ul of a kinase/PIP2 mixture (diluted in 1× reaction buffer) is added per well for a final concentration of 0.25-0.3 ug/ml kinase and 10 μM PIP2. The plate is sealed and incubated for 15 minutes at room temperature. To start the reaction, 3.5 ul of ATP (diluted in 1× reaction buffer) is added per well for a final concentration of 10 μM ATP. The plate is sealed and incubated for 1 hour at room temperature. The reaction is stopped by adding 5 ul of Stop Solution per well and then 5 ul of Detection Mix is added per well. The plate is sealed, incubated for 1 hour at room temperature, and then read on an appropriate plate reader. Data is analyzed and IC50s are generated using GraphPad Prism 5. […] For PI3K α, β, δ, and γ, the nM concentration of inhibitor to reach IC50 is provided.

Take `CS(=O)(=O)N1CCN(C(=O)c2cnc3ccc(-c4ccc5oc(N)nc5c4)cn23)CC1` [compound 112]: the pIC50 is > 7.00 on p110α/p85α (read-out: PI3K α IC50), > 6.00 in assay [1] (setting [2]), > 5.00 at p110δ/p85α (read-out: PI3K δ IC50) and > 6.00 at p110γ (read-out: PI3K γ IC50).
For `Nc1nc2cc(-c3ccc4ncc(N5CCOCC5)nc4c3)ccc2s1` [compound 116], the pIC50 at p110β/p85α was > 6.00; at p110α/p85α (read-out: PI3K α IC50), > 7.00; in assay [1] (setting [2]), > 6.00; at p110γ (read-out: PI3K γ IC50) it was > 6.00.
`Nc1nc2cc(-c3ccc4ncc(C(=O)N5C6CCC5COC6)n4c3)ccc2o1` [compound 480]: the pIC50 at p110α/p85α (read-out: PI3K α In Vitro IC50) is > 7.00; in assay [1] (setting [3]), > 6.00; on p110δ/p85α (read-out: PI3K δ In Vitro IC50) it was > 5.00; on p110γ (read-out: PI3K γ In Vitro IC50), > 6.00.
`NC(=O)[C@@H]1CCCN1C(=O)C1CN(c2cnc3ccc(-c4ccc5oc(N)nc5c4)cc3n2)C1` [compound 283]: the figures for the pIC50 (on p110α/p85α (setting [4]); in assay [1] (setting [5]); on p110γ (setting [6])) were > 7.00, > 5.00 and > 6.00, respectively.
In the case of `Nc1nc2cc(-c3ccc4ncn(CCO)c(=O)c4c3)ccc2o1` [compound 184], the pIC50 was > 5.00 on p110β/p85α, > 7.00 at p110α/p85α (read-out: PI3K α IC50), > 5.00 in assay [1] (setting [2]) and > 6.00 at p110γ (read-out: PI3K γ IC50).
In the case of `Nc1nc2cc(-c3ccc4ncc(N5CC(N6CCC(O)CC6)C5)nc4c3)ccc2o1` [compound 341], the pIC50 on p110α/p85α (setting [4]) is > 6.00; in assay [1] (setting [5]), > 5.00; at p110δ/p85α (setting [7]), > 5.00; on p110γ (setting [6]), > 5.00.
Regarding `CC(=O)N1CCN(C(=O)c2cnc3ccc(-c4ccc5oc(N)nc5c4)cn23)CC1` [compound 113], the pIC50 was > 7.00 on p110α/p85α (read-out: PI3K α IC50), > 5.00 in assay [1] (setting [2]) and > 6.00 at p110γ (read-out: PI3K γ IC50).
As for `Nc1nc2cc(-c3ccc4ncc(N5CCNC(=O)C5)nc4c3)ccc2o1` [compound 135], the pIC50 at p110β/p85α is > 6.00; on p110α/p85α (read-out: PI3K α IC50), > 7.00; in assay [1] (setting [2]), > 6.00; at p110γ (read-out: PI3K γ IC50), > 6.00.
For `CC(C)N1CCN(C(=O)c2cnc3ccc(-c4ccc5oc(N)nc5c4)cn23)CC1` [compound 160], the pIC50 on p110β/p85α is > 5.00; on p110α/p85α (read-out: PI3K α IC50), > 7.00; in assay [1] (setting [2]) it was > 5.00.
Turning to `Nc1nc2ccc(-c3ccc4ncc(N5CCOCC5)nc4c3)cc2o1` [compound 117], the pIC50 on p110β/p85α was > 6.00; on p110α/p85α (read-out: PI3K α IC50) it was > 7.00; in assay [1] (setting [2]), > 5.00; on p110γ (read-out: PI3K γ IC50), > 6.00.
For `Nc1nc2cc(-c3ccc4ncc(C(=O)N5CCC(F)(F)C5)n4c3)ccc2o1` [compound 471], the pIC50 was > 7.00 at p110α/p85α (read-out: PI3K α In Vitro IC50), > 5.00 in assay [1] (setting [3]) and > 7.00 at p110γ (read-out: PI3K γ In Vitro IC50).
Consider `Nc1nc2cc(-c3ccc4ncc(N5CCN(C6CC6)CC5)nc4c3)ccc2o1` [compound 261], for which the pIC50 on p110β/p85α (in vitro) is > 6.00; on p110α/p85α (setting [4]) it was > 7.00; in assay [1] (setting [5]), > 5.00; at p110γ (setting [6]), > 6.00.
As for `Nc1nc2cc(-c3ccc4ncc(C(=O)NC5CCC(O)CC5)n4c3)ccc2o1` (stereo not drawn) [compound 143], the pIC50 in assay [1] (setting [2]) was > 6.00.
For `Nc1nc2cc(-c3ccc4ncc(C(=O)N5CC(F)(F)C5)n4c3)ccc2o1` [compound 473], the pIC50 on p110α/p85α (read-out: PI3K α In Vitro IC50) is > 7.00; in assay [1] (setting [3]), > 6.00; at p110γ (read-out: PI3K γ In Vitro IC50), > 7.00.
On to `NC(=O)[C@@H]1CCCN1c1cnc2ccc(-c3ccc4oc(N)nc4c3)cc2n1` [compound 257], for which the pIC50 on p110α/p85α (setting [4]) was > 7.00; in assay [1] (setting [5]) it was > 5.00.
In the case of `CN1CCN(c2cnc3ccc(-c4ccc5nc(N)sc5c4)cc3n2)CC1` [compound 115], the pIC50 on p110β/p85α is > 7.00; on p110α/p85α (read-out: PI3K α IC50), > 7.00; in assay [1] (setting [2]), > 5.00; at p110γ (read-out: PI3K γ IC50), > 5.00.
`CNC(=O)C1CN(c2cnc3ccc(-c4ccc5oc(N)nc5c4)cc3n2)C1` [compound 214]: the pIC50 at p110β/p85α (in vitro) was > 7.00; at p110α/p85α (setting [4]) it was > 7.00; on p110δ/p85α (setting [7]) it was > 5.00; at p110γ (setting [6]), > 6.00.
With `CN1CCC(Nc2cnc3ccc(-c4ccc5oc(N)nc5c4)cc3n2)CC1` [compound 81], the pIC50 at p110β/p85α was > 6.00; at p110α/p85α (read-out: PI3K α IC50) it was > 7.00; at p110δ/p85α (read-out: PI3K δ IC50), > 7.00; on p110γ (read-out: PI3K γ IC50), > 6.00.
Consider `Nc1nc2cc(-c3ccc4ncc(-c5cnn(CCO)c5)nc4c3)ccc2o1` [compound 108], for which the pIC50 is > 5.00 on p110β/p85α, > 7.00 on p110α/p85α (read-out: PI3K α IC50), > 6.00 in assay [1] (setting [2]) and > 7.00 on p110γ (read-out: PI3K γ IC50).
